The numbers were not newly measured in article PMC10116525 (ACS Omega, 2023), which cites them from elsewhere.

Where [1] appears, read: Lys^B29-lipidated insulin analogues.

Read-outs that look alike come from different tables or passages of the source.

For degludec, the Duration of action under setting [1] is given as ≤ 42 h.

Regarding detemir, under setting [1], the Duration of action entry is “up to 24 h”.

As to insulin glargine, the Duration of action result (precipitation in the subcutaneous space) is on record as “up to 24 h”.
